Source: patent publication US11447825B2, “In-vitro methods for the detection of autoimmune diseases or conditions” (Universitätsmedizin der Johannes Gutenberg-Universität Mainz, priority 2015, dated 2022)

Legend:
Format in all cases: cell-based, human
[1] = test system: T-cells cocultured with Treg; assay: Suppressor assay: T-cell proliferation with or without Treg (3H-Tdr incorporation); conditions: for Treg-mediated suppression in cocultures in presence of exogenous IL-6: HC T-cells with Treg plus IL-6 plus test substance, anti-IL-6R mAb 30 ng/ml, Akt VIII inhibitor 0.1 μM, PPARA agonist 0.01 μM
Method: Treg-depleted PBMC (10^5 cells) were stimulated with 0.5 μg/ml anti-CD3 mAb (OKT-3) and cultured in presence or absence of different Treg ratios (Treg:T-cells 1:1 to 1:64) (Jonuleit et al., 2001; Kubach et al., 2007). T-cell proliferation was determined on day three of cultures by addition of 37 kBq/well ^3H-Tdr for additional 16 h. Some experiments were performed by supplementing cultures with neutralizing mAb against anti-IL-6R (30 ng/ml; Tocilizumab; Roacterma; Roche) or supplemented with IL-6 (100 ng/ml or 1000 IU/ml; CellGenix). PKB/c-Akt VIII inhibitor (0.1 μM; Calbiochem, Isozyme-selective, Akt1/2) was added into individual assays. Some experiments were performed by supplementing cultures with PPARA antagonists (GW6471, Tocris, 0.05 μM) or PPARA agonists (GW7646, Tocris, 0.01 μM) together with IL-6 (100 ng/ml or 1000 IU/ml; CellGenix). For flow cytometric analysis of proliferating T-cells Treg-depleted PBMC were washed in warm PBS and stained with 1 μM CFSE and afterwards cocultured with or without Treg (ratio 1:1) and stimulated with 0.5 μg/ml anti-CD3 mAb. Proliferation was assessed on day 3 after excluding dead cells. Analysis was performed on LSRII (BD Bioscience) and evaluated using DIVA software (BD Bioscience).

T-cells = assay: Toxicity of PPARα modifiers in cell culture; conditions: incubation with PPARα antagonist (Supplemental FIG. 4)
Method: Human cells were cultured in X-VIVO-15 (Lonza, Belgium). Flow cytometric analysis was performed using the following antibodies: anti-human CD3 (SK7), anti-human CD3 (UCHT1), anti-human CD4 (RPA-T4), anti-human CD8 (SK1), anti-human CD14 (M5E2), anti-human CD19 (HIB19), anti-human CD25 (M-A251), all from BD Pharmingen, anti-human CD8 (BW 135/80, Miltenyi Biotec), Fluorokine® biotinylated human Interleukin-6 (R&D systems). Cell viability during flow cytometric analysis was determined using 7-AAD and eFluor506 (eBioscience). For blockade experiments, cultures were supplemented with neutralizing antibody against anti-IL-6R (Tocilizumab), PKB/c-Akt VIII inhibitor (Calbiochem), PPARA antagonists (GW6471, Tocris, 0.05 μM) or PPARA agonists (GW7646, Tocris, 0.01 μM) together with IL-6 (100 ng/ml or 1000 IU/ml; CellGenix).

PKB/c-Akt = PKB/c-Akt phosphorylation in CD3+ T-cells by flow cytometry; conditions: HC T-cells; for phosphorylation of PKB/c-Akt in presence of IL-6: 24 h with IL-6 plus IL-6R mAb or VIII inhibitor (0.01, 0.1 and 1 μM)
Method: For surface staining of PBMC or T-cells indicated antibodies were incubated for 30 min at 4° C. and washed twice with PBS. Stained cells were measured on LSRII with FACS Diva Software (BD Bioscience). To detect phosphorylated PKB/c-Akt (anti-Akt, pS473, BD Phosflow), cells were fixed at 37° C. (BD Cytofix™ Buffer); permeabilized (BD™ Phosflow Perm Buffer) washed twice with BD Pharmingen™ stain buffer and stained for the indicated antibody according to manufacturer's instructions.
A) Upper panel: CD3^+ T-cells and Treg were coculture in presence (grey) or absence (black) of IL-6 and stimulated with anti-CD3 mAb. […] One of four independent experiments is shown. Lower panel: PBMC from HC were cultured for 24 h with (grey) or without (black) IL-6, washed extensively and CD4^+ or CD8^+ T-cells were isolated. Cells were left unstimulated or were activated with plate-bound anti-CD3 and anti-CD28 mAb for four hours. Shown are expression levels of (PPARGC1A) PGC-1α mRNA in activated CD4^+ and CD8^+ T-cells (TC) normalized to resting T-cells. β-Actin used as housekeeping gene. Bars represent mean of four experiments, p-values relative to TC without IL-6. B) PKB/c-Akt phosphorylation was analyzed by flow cytometry within CD3^+ T-cells after 24 h of culture with (black) or without IL-6 (grey). C) Flow cytometric determination of PKB/c-Akt phosphorylation. […] Shown is the mean fluorescence intensity (MFI) of pPKB/c-Akt in T-cells, one representative result of five independent experiments. […] PKB/c-Akt phosphorylation was analyzed by flow cytometry within CD3^+ T-cells. […]
A) PBMC from HC were cultured for 24 h with media (black), PPARα antagonist (blue) or PPARα agonist (green), washed extensively and expression level of PGC-1α mRNA in activated T-cells was detected by qRT-PCR. β-Actin used as housekeeping gene. […] B) PKB/c-Akt phosphorylation was analysed by flow cytometry within CD3^+ T-cells after 24 h of culture with media (black), PPARα agonist (green) or PPARα antagonist (blue). […]

PGC-1α = PGC-1α (PPARGC1A) mRNA expression in activated T-cells by qRT-PCR; conditions: HC PBMC 24 h with IL-6, then anti-CD3/anti-CD28 for four hours; normalized to resting T-cells
Method: RNA was extracted from 2×10^6 cells using Rneasy Kit (Qiagen) according to manufacturer's instructions. cDNA was generated by reverse transcription with Sensiscript RT Kit (Qiagen) and amplified by quantitative RT-PCR (qRT-PCR, 7300 Real Time PCR System (Applied Biosystem) and the QuantiFAST PCR Kit (Qiagen). Relative IL-6 mRNA (QuantiTect Primer, Qiagen) expression levels were normalized to EF1-α or β-Actin. Relative PPARGC1α, IRF8, FGF19, HNF4A, Hdac, RORA mRNA was analyzed with QuantiTect Primer Assay (Qiagen) according to manufacturer's instructions and expression levels were normalized to β-ACT.
A) Upper panel: CD3^+ T-cells and Treg were coculture in presence (grey) or absence (black) of IL-6 and stimulated with anti-CD3 mAb. […] One of four independent experiments is shown. […] B) PKB/c-Akt phosphorylation was analyzed by flow cytometry within CD3^+ T-cells after 24 h of culture with (black) or without IL-6 (grey). […] Shown is the mean fluorescence intensity (MFI) of pPKB/c-Akt in T-cells, one representative result of five independent experiments. […] PKB/c-Akt phosphorylation was analyzed by flow cytometry within CD3^+ T-cells. […]
A) PBMC from HC were cultured for 24 h with media (black), PPARα antagonist (blue) or PPARα agonist (green), washed extensively and expression level of PGC-1α mRNA in activated T-cells was detected by qRT-PCR. β-Actin used as housekeeping gene. […]

For CCC(=O)NC[C@H](Cc1ccc(OCCc2nc(-c3ccccc3)oc2C)cc1)N/C(C)=C\C(=O)c1ccc(C(F)(F)F)cc1 [PPARα antagonist], the “Treg resistance in cocultures without IL-6” value ([1]; T-cells and Treg, anti-CD3 mAb, PPARA antagonist 0.05 μM alone) was “Treg resistance could be induced”, the “T-cell proliferation in absence of Treg” value ([1]; no Treg, agonist 0.01 μM, antagonist 0.05 μM) was “did not influence the T-cell proliferation significantly” and the toxicity (T-cells) was “without inducing toxicity”.

For O=c1[nH]c2ccccc2n1C1CCN(Cc2ccc(-c3nc4cc5[nH]cnc5cc4nc3-c3ccccc3)cc2)CC1 [c-Akt inhibitor VIII], the “Treg-mediated suppression in cocultures in presence of exogenous IL-6” value [1] was “restored IL-6-induced Treg resistance” and the “phosphorylation of PKB/c-Akt in presence of IL-6” value (PKB/c-Akt) was “inhibited phosphorylation of PKB/c-Akt”.

With “IL-6: exogenous cytokine IL-6 (100 ng/ml or 1000 IU/ml; CellGenix)” the “control of T-cells by Treg in suppressor cocultures” value ([1]; Treg-sensitive T-cells from HC with Treg, anti-CD3 mAb, IL-6 supplemented (100 ng/ml or 1000 IU/ml), day three) was “prevented efficient control of T-cells by Treg”, the “PGC-1α expression in activated CD4+ T-cells” value (PGC-1α) was “down regulated PGC-1α expression” and the “PGC-1α expression in activated CD8+ T-cells” value (PGC-1α) was “prevented the upregulation of PGC-1α”. For the same compound, the “phosphorylation of PKB/c-Akt in T-cells” value (PKB/c-Akt; 24 h culture with IL-6) was “enhanced phosphorylation of PKB/c-Akt”.

“anti-IL-6R mAb: neutralizing mAb against anti-IL-6R (Tocilizumab; Roacterma; Roche)” was tested, and the “Treg-mediated suppression in cocultures in presence of exogenous IL-6” value [1] was “restored IL-6-induced Treg resistance” and the “phosphorylation of PKB/c-Akt in presence of IL-6” value (PKB/c-Akt) was “inhibited phosphorylation of PKB/c-Akt”.
